{
  "source": "ChEMBL document CHEMBL5532652",
  "about": "“Design and synthesis of pterostilbene derivatives bearing triazole moiety that might treat DSS-induced colitis in mice through modulation of NF-κB/MAPK signaling pathways” (Eur J Med Chem, 2024)",
  "key": {"[1]": {"tested_on": "RAW264.7", "assay": "Anti-inflammatory activity in LPS-stimulated mouse RAW264.7 cells assessed as reduction in p38 level at 0.5 to 2 uM preincubated with compound for 1 hr followed by LPS stimulation and measured after 30 mins by Western blot analysis", "type": "functional, cell-based", "details": "dose 0.5-2 µM, time 1.5 hrs"}, "[2]": {"assay": "Acute toxicity in male C57BL/6 mouse assessed as anorexia at 1000 to 2000 mg/kg, po measured for 14 days", "type": "organism-based", "details": "in vivo, 336 h, dose 1000-2000 mg/kg, time 14 day"}, "[3]": {"assay": "Acute toxicity in female C57BL/6 mouse assessed as anorexia at 1000 to 2000 mg/kg, po measured for 14 days", "type": "organism-based", "details": "in vivo, 336 h, dose 1000-2000 mg/kg, time 14 day"}, "[4]": {"assay": "Cytotoxicity against mouse RAW264.7 cells assessed as reduction in cell viability at 20 uM incubated for 24 hrs in absence of LPS by MTT assay", "type": "toxicity, cell-based"}, "[5]": {"tested_on": "RAW264.7", "assay": "Anti-inflammatory activity in mouse RAW264.7 cells assessed as inhibition of LPS-induced NO production at 10 uM incubated pretreated with compound for 1 hr followed by LPS-induction and measured after 24 hrs by Griess reagent based assay relative to control", "type": "functional", "details": "time 25 hrs"}, "[6]": {"tested_on": "RAW264.7", "assay": "Anti-inflammatory activity in LPS-stimulated mouse RAW264.7 cells assessed as inhibition of p65 phosphorylation at 0.5 to 2 uM preincubated with compound for 1 hr followed by LPS stimulation and measured after 30 mins by Western blot analysis", "type": "functional, cell-based", "details": "dose 0.5-2 µM, time 1.5 hrs"}, "[7]": {"assay": "Acute toxicity in female C57BL/6 mouse assessed as effect on body weight loss at 1000 to 2000 mg/kg, po measured for 14 days", "type": "organism-based", "details": "in vivo, 336 h, dose 1000-2000 mg/kg, time 14 day"}, "[8]": {"tested_on": "RAW264.7", "assay": "Anti-inflammatory activity against LPS-stimulated mouse RAW264.7 cells assessed as reduction in LPS-induced COX-2 level preincubated with compound for 1 hr followed by LPS stimulation and measured after 24 hrs by Western blot analysis", "type": "functional, cell-based", "details": "dose 0.5-2 µM, time 25.0 hrs"}, "[9]": {"tested_on": "RAW264.7", "assay": "Anti-inflammatory activity in LPS-stimulated mouse RAW264.7 cells assessed as inhibition of p38 phosphorylation preincubated with compound for 1 hr followed by LPS stimulation and measured after 30 mins by Western blot analysis", "type": "functional, cell-based", "details": "dose 0.5-2 µM, time 1.5 hrs"}},
  "note": "The source made the active and inactive calls. The rule behind the calls is not given here.",
  "data": [
    {"smiles": "C=CCOc1ccc(/C=C/c2cc(OC)cc(OC)c2-c2cnnn2C(=O)NCCCl)cc1", "values": [
      {"measurement": "Activity", "setting": "[1]", "result": "Active"},
      {"measurement": "Activity", "setting": "[2]", "result": "Non-Toxic"},
      {"measurement": "Activity", "setting": "[3]", "result": "Non-Toxic"},
      {"measurement": "IC50 at 24 h", "setting": "[4]", "result": "> 50", "unit": "µM"},
      {"measurement": "inhibition at 10 µM", "setting": "[5]", "result": 98, "unit": "%"},
      {"measurement": "Activity", "setting": "[6]", "result": "Active"},
      {"measurement": "Activity", "setting": "[7]", "result": "Non-Toxic"},
      {"measurement": "Activity", "setting": "[8]", "result": "Dose-Dependent Effect"},
      {"measurement": "Activity", "setting": "[9]", "result": "Dose-Dependent Effect"}
    ]}
  ]
}
